Each structure is given as a SMILES string. Read-outs that look alike come from different tables or passages of the source. Square brackets hold non-standard residues; d marks the D form. Peptide text beside a SMILES is read from it. * marks the point of attachment. X3 = O=C(CSCC(=O)*)NCCn1ccccc1=O; Aib = CC(C)(N)C(=O)O

Common to all, as to assay type: cell-based
For experiment [1], the target named is T1, GLP-1R (Homo sapiens, UniProt P43220). The experiment in a line: PathHunter β-arrestin assay. The procedure, abridged: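 Following a 90 min agonist exposure at 37 °C in 0.2% BSA medium, β-arrestin coupling was detected by chemiluminescence after 3 h at room temperature.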
T1 sequence (P43220 24-463): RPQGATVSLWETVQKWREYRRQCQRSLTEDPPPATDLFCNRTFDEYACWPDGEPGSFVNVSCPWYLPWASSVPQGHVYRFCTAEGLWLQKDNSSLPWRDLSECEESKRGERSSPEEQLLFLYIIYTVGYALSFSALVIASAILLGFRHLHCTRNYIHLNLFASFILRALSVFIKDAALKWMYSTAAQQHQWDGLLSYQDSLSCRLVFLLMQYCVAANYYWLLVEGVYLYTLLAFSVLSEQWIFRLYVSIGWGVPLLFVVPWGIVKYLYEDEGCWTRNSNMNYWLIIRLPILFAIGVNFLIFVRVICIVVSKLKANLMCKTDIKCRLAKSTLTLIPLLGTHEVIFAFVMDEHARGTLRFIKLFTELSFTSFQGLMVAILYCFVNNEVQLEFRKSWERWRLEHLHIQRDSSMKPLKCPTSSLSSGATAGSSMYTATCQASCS
Experiment [2] addresses T1, GLP-1R. The experiment in a line: HitHunter cAMP assay (GLP-1R). The settings on record: for Emax: read-out: (Emax) GLP-1R. The procedure, abridged: (§1)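 Duplicate 22-point, 2-fold agonist titrations applied to receptor-expressing suspension cells in IBMX-containing HBSS; 30 min RT stimulation. Read: luminescent cAMP immunocompetition after O/N dark incubation.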
In general terms: cAMP levels reflect the balance of adenylyl cyclase and phosphodiesterase activity.

Experiment [3] deals with T2, GIP-R (Homo sapiens, UniProt P48546).
T2 sequence (P48546 22-466): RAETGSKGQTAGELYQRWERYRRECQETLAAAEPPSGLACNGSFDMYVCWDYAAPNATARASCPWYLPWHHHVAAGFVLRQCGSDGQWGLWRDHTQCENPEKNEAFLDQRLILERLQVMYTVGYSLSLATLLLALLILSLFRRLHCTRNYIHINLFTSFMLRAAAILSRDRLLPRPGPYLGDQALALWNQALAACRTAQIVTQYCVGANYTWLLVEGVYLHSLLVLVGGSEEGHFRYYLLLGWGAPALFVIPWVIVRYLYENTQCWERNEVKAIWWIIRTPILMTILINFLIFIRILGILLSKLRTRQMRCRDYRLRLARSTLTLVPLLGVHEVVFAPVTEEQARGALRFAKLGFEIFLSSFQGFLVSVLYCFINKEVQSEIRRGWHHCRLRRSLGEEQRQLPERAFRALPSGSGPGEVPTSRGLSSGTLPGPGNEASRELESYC
The experiment in a line: HitHunter cAMP assay (GIP-R). The settings on record: for Emax: read-out: (Emax) GIP-R. The procedure, abridged: as §1

Setting [4] is: PathHunter β-arrestin assay, read-out: β-arrestin activity EC50.
[5] abbreviates: Table 3, cAMP, read-out: EC50 GLP-1R/nM.
Setting [6] is: Table 3A, cAMP, read-out: EC50 GLP-1R/nM.
[7] abbreviates: Table 3, cAMP, read-out: EC50 GIP-R/nM.
Where [8] appears, read: Table 3A, cAMP, read-out: EC50 GIP-R/nM.

As for `CC[C@H](C)[C@H](NC(=O)[C@H](CO)NC(=O)[C@H](Cc1ccc(O)cc1)NC(=O)[C@H](CC(=O)O)NC(=O)[C@H](CO)NC(=O)[C@@H](NC(=O)[C@H](Cc1ccccc1)NC(=O)[C@@H](NC(=O)CNC(=O)[C@H](CCC(=O)O)NC(=O)CSCC(=O)NCCn1ccccc1=O)[C@@H](C)O)[C@@H](C)O)C(=O)N[C@@H](Cc1ccc(O)cc1)C(=O)N[C@@H](CC(C)C)C(=O)N[C@@H](CC(=O)O)C(=O)N[C@@H](CCCCN)C(=O)N[C@@H](CCC(N)=O)C(=O)N[C@@H](C)C(=O)N[C@@H](C)C(=O)NC(C)(C)C(=O)N[C@@H](CCC(=O)O)C(=O)N[C@@H](Cc1ccccc1)C(=O)N[C@H](C(=O)N[C@@H](CC(N)=O)C(=O)N[C@@H](Cc1c[nH]c2ccccc12)C(=O)N[C@@H](CC(C)C)C(=O)N[C@@H](CC(C)C)C(=O)N[C@@H](C)C(=O)NCC(=O)NCC(=O)N1CCC[C@H]1C(=O)N[C@@H](CO)C(=O)N[C@@H](CO)C(=O)NCC(=O)N[C@@H](C)C(=O)N1CCC[C@H]1C(=O)N1CCC[C@H]1C(=O)N1CCC[C@H]1C(=O)N[C@@H](CO)C(=O)N[C@@H](CCCCN)C(N)=O)[C@@H](C)CC` [Compound 118] (X3-EGTFTSDYSIYLDKQAA[Aib]EFINWLLAGGPSSGAPPPSK-NH2), the EC50 is above 1000 nM in experiment [1] (setting [4]); below 0.1 nM in experiment [2] (setting [5]); below 0.1 nM in experiment [2] (setting [6]); 1 to 10 nM in experiment [3] (setting [7]); 1 to 10 nM in experiment [3] (setting [8]). The Emax (in general, the greatest response seen or fitted, relative to the assay's reference) in experiment [2] (Table 3, cAMP) was determined as 95%; in experiment [2] (Table 3A, cAMP), 95%; in experiment [3] (Table 3, cAMP) it was 35%; in experiment [3] (Table 3A, cAMP) it was 35%.
Turning to `CCCCCCCCCCCCCCCC(=O)N[C@@H](CCC(=O)NCCCC[C@H](NC(=O)[C@H](CO)NC(=O)[C@@H]1CCCN1C(=O)[C@@H]1CCCN1C(=O)[C@@H]1CCCN1C(=O)[C@H](C)NC(=O)CNC(=O)[C@H](CO)NC(=O)[C@H](CO)NC(=O)[C@@H]1CCCN1C(=O)CNC(=O)CNC(=O)[C@H](C)NC(=O)[C@H](CC(C)C)NC(=O)[C@H](CC(C)C)NC(=O)[C@H](Cc1c[nH]c2ccccc12)NC(=O)[C@H](CC(N)=O)NC(=O)[C@@H](NC(=O)[C@H](Cc1ccccc1)NC(=O)[C@H](CCC(=O)O)NC(=O)C(C)(C)NC(=O)[C@H](C)NC(=O)[C@H](C)NC(=O)[C@H](CCC(N)=O)NC(=O)[C@H](CCCCN)NC(=O)[C@H](CC(=O)O)NC(=O)[C@H](CC(C)C)NC(=O)[C@H](Cc1ccc(O)cc1)NC(=O)[C@@H](NC(=O)[C@H](CO)NC(=O)[C@H](Cc1ccc(O)cc1)NC(=O)[C@H](CC(=O)O)NC(=O)[C@H](CO)NC(=O)[C@@H](NC(=O)[C@H](Cc1ccccc1)NC(=O)[C@@H](NC(=O)CNC(=O)[C@H](CCC(=O)O)NC(=O)CSCC(=O)NCCN1C(=O)CC[C@H](C)C1=O)[C@@H](C)O)[C@@H](C)O)[C@@H](C)CC)C(C)C)C(N)=O)C(=O)O` [Compound 92], the EC50 in experiment [1] is above 1000 nM; in experiment [2] (EC50 GLP-1R/nM, Table 3, cAMP), 1 to 10 nM; in experiment [2] (EC50 GLP-1R/nM, Table 3A, cAMP), 1 to 10 nM; in experiment [3] (EC50 GIP-R/nM, Table 3, cAMP) it was 0.1 to 1 nM; in experiment [3] (EC50 GIP-R/nM, Table 3A, cAMP), 0.1 to 1 nM. Moreover, the maximal response (Emax) in experiment [2] (Table 3, cAMP) is 94 to 104%; in experiment [2] (Table 3A, cAMP), 94 to 104%; in experiment [3] (Table 3, cAMP), 85 to 88%; in experiment [3] (Table 3A, cAMP), 85 to 88%.
As to `CCCCCCCCCCCCCCCC(=O)N[C@@H](CCC(=O)NCCCC[C@H](NC(=O)[C@H](CO)NC(=O)[C@@H]1CCCN1C(=O)[C@@H]1CCCN1C(=O)[C@@H]1CCCN1C(=O)[C@H](C)NC(=O)CNC(=O)[C@H](CO)NC(=O)[C@H](CO)NC(=O)[C@@H]1CCCN1C(=O)CNC(=O)CNC(=O)[C@H](C)NC(=O)[C@H](CC(C)C)NC(=O)[C@H](CC(C)C)NC(=O)[C@H](Cc1c[nH]c2ccccc12)NC(=O)[C@H](CC(N)=O)NC(=O)[C@@H](NC(=O)[C@H](Cc1ccccc1)NC(=O)[C@H](CCC(=O)O)NC(=O)C(C)(C)NC(=O)[C@H](C)NC(=O)[C@H](C)NC(=O)[C@H](CCC(N)=O)NC(=O)[C@H](CCCCN)NC(=O)[C@H](CC(=O)O)NC(=O)[C@H](CC(C)C)NC(=O)[C@H](Cc1ccc(O)cc1)NC(=O)[C@@H](NC(=O)[C@H](CO)NC(=O)[C@H](Cc1ccc(O)cc1)NC(=O)[C@H](CC(=O)O)NC(=O)[C@H](CO)NC(=O)[C@@H](NC(=O)[C@H](Cc1ccccc1)NC(=O)[C@@H](NC(=O)CNC(=O)[C@H](CCC(=O)O)NC(=O)CSCC(=O)N(C)CCN1CCCCC1=O)[C@@H](C)O)[C@@H](C)O)[C@@H](C)CC)C(C)C)C(N)=O)C(=O)O` [Compound 17], the EC50 in experiment [1] was above 1000 nM; in experiment [2] (EC50 GLP-1R/nM, Table 3, cAMP) it was 0.1 to 1 nM; in experiment [2] (EC50 GLP-1R/nM, Table 3A, cAMP) it was 0.1 to 1 nM; in experiment [3] (EC50 GIP-R/nM, Table 3, cAMP) it was 1 to 10 nM; in experiment [3] (EC50 GIP-R/nM, Table 3A, cAMP), 1 to 10 nM. Also, the Emax in experiment [2] (Table 3, cAMP) came to 92%; in experiment [2] (Table 3A, cAMP), 92%; in experiment [3] (Table 3, cAMP), 55%; in experiment [3] (Table 3A, cAMP), 55%.
On to `CCCCCCCCCCCCCCCC(=O)N[C@@H](CCC(=O)NCCCC[C@H](NC(=O)[C@H](CO)NC(=O)[C@@H]1CCCN1C(=O)[C@@H]1CCCN1C(=O)[C@@H]1CCCN1C(=O)[C@H](C)NC(=O)CNC(=O)[C@H](CO)NC(=O)[C@H](CO)NC(=O)[C@@H]1CCCN1C(=O)CNC(=O)CNC(=O)[C@H](C)NC(=O)[C@H](CC(C)C)NC(=O)[C@H](CC(C)C)NC(=O)[C@H](Cc1c[nH]c2ccccc12)NC(=O)[C@H](CC(N)=O)NC(=O)[C@@H](NC(=O)[C@H](Cc1ccccc1)NC(=O)[C@H](CCC(=O)O)NC(=O)C(C)(C)NC(=O)[C@H](C)NC(=O)[C@H](C)NC(=O)[C@H](CCC(N)=O)NC(=O)[C@H](CCCCN)NC(=O)[C@H](CC(=O)O)NC(=O)[C@H](CC(C)C)NC(=O)[C@H](Cc1ccc(O)cc1)NC(=O)[C@@H](NC(=O)[C@H](CO)NC(=O)[C@H](Cc1ccc(O)cc1)NC(=O)[C@H](CC(=O)O)NC(=O)[C@H](CO)NC(=O)[C@@H](NC(=O)[C@H](Cc1ccccc1)NC(=O)[C@@H](NC(=O)CNC(=O)[C@H](CCC(=O)O)NC(=O)CCCCC(=O)NCCN1CCCCC1=O)[C@@H](C)O)[C@@H](C)O)[C@@H](C)CC)C(C)C)C(N)=O)C(=O)O` [Compound 20], for which the EC50 is above 1000 nM in experiment [1]; 0.1 to 1 nM in experiment [2]; 0.1 to 1 nM in experiment [2] (read-out: EC50 GLP-1R/nM, Table 3A, cAMP); 1 to 10 nM in experiment [3] (EC50 GIP-R/nM, Table 3, cAMP); 10 to 100 nM in experiment [3] (EC50 GIP-R/nM, Table 3A, cAMP). Also, the Emax in experiment [2] worked out at 91%; in experiment [3], 22%.
Take `CCCCCCCCCCCCCCCC(=O)N[C@@H](CCC(=O)NCCCC[C@H](NC(=O)[C@H](CO)NC(=O)[C@@H]1CCCN1C(=O)[C@@H]1CCCN1C(=O)[C@@H]1CCCN1C(=O)[C@H](C)NC(=O)CNC(=O)[C@H](CO)NC(=O)[C@H](CO)NC(=O)[C@@H]1CCCN1C(=O)CNC(=O)CNC(=O)[C@H](C)NC(=O)[C@H](CC(C)C)NC(=O)[C@H](CC(C)C)NC(=O)[C@H](Cc1c[nH]c2ccccc12)NC(=O)[C@H](CC(N)=O)NC(=O)[C@@H](NC(=O)[C@H](Cc1ccccc1)NC(=O)[C@H](CCC(=O)O)NC(=O)C(C)(C)NC(=O)[C@H](C)NC(=O)[C@H](C)NC(=O)[C@H](CCC(N)=O)NC(=O)[C@H](CCCCN)NC(=O)[C@H](CC(=O)O)NC(=O)[C@H](CC(C)C)NC(=O)[C@H](Cc1ccc(O)cc1)NC(=O)[C@@H](NC(=O)[C@H](CO)NC(=O)[C@H](Cc1ccc(O)cc1)NC(=O)[C@H](CC(=O)O)NC(=O)[C@H](CO)NC(=O)[C@@H](NC(=O)[C@H](Cc1ccccc1)NC(=O)[C@@H](NC(=O)CNC(=O)[C@H](CCC(=O)O)NC(=O)CCNC(=O)CCN1CCCCC1=O)[C@@H](C)O)[C@@H](C)O)[C@@H](C)CC)C(C)C)C(N)=O)C(=O)O` [Compound 9]: the EC50 is above 1000 nM in experiment [1] (setting [4]); below 0.1 nM in experiment [2] (setting [5]); below 0.1 nM in experiment [2] (setting [6]); 1 to 10 nM in experiment [3] (setting [7]); 1 to 10 nM in experiment [3] (setting [8]). Also, the maximal response (Emax) came to 100% in experiment [2] (Table 3, cAMP); 100% in experiment [2] (Table 3A, cAMP); 48% in experiment [3] (Table 3, cAMP); 48% in experiment [3] (Table 3A, cAMP).

For the origin of these results see patent publication US20260176320A1, “MODULATORS OF G-PROTEIN COUPLED RECEPTORS” (priority 2018, published 2026).
